What is called Ki is a measure of affinity in units of concentration, obtained from inhibition or displacement. Low values mean a stronger hold on the target, high ones a looser hold on the target.

The target of test [1] is T1, human D4 receptor (D4.2 sub-type) (Homo sapiens, UniProt P21917, DEL265-296).
T1 construct: expressed in transfected cells; host or cells: HEK 298 [sic] (human embryonic kidney) cells
T1 sequence (P21917 with tags, fused parts or gaps DEL265-296): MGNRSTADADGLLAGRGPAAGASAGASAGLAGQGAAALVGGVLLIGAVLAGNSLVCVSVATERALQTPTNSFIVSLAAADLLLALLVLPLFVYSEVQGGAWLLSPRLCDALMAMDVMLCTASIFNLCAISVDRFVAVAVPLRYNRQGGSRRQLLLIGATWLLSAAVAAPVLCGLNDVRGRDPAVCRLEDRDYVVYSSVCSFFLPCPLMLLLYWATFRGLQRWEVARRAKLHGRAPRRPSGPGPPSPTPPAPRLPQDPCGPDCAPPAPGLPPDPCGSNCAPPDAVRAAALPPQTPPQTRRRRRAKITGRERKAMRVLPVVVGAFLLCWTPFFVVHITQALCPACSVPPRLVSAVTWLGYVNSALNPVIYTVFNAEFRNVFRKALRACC
As to the kind of experiment: Dopamine D4 Receptor Binding Assay (3H-spiperone displacement). To be noted: 3H-spiperone 0.25 nM; cells stably transfected with human D4.2; 90 minutes, room temperature, pH 7.4. The method, then:
The cells were then centrifuged in a Sorval centrifuge for 10 minutes, 5000 rpm (GS3 rotor) and the pellets quickly frozen in liquid nitrogen and stored at -80° C. until used in binding assay. When used in the assay, cells were thawed on ice for 20 minutes and then 10 mL of incubation buffer (50 mM Tris, 1 mM EDTA, 4 mM MgCl2, 5 mM KCl, 1.5 mM CaCl2, 120 mM NaCl, pH7.4) was added. […] Concentration of receptor protein was determined using the Pierce BCA assay.
(§1) The incubation was started by the addition to 12×75 mm polypropylene tubes 500 μl (50 μg protein) membrane homogenate to a solution of 400 μl incubation buffer, 100 μl ([…].) ^3 H-spiperone (90 Ci/mmol, Amersham, diluted in borosilicate glass vial to) and 500 μl of test compound that was prepared from 1 mM stock dissolved in DMSO and stored at -20° C. in polypropylene cryogenic storage vials until dilution in incubation buffer in borosilicate glass vials.

In test [2] the target is T2, human D2 receptor (short isoform) (Homo sapiens, UniProt P14416).
T2 construct: expressed in transfected cells
T2 sequence (P14416 1-414 isoform P14416-2): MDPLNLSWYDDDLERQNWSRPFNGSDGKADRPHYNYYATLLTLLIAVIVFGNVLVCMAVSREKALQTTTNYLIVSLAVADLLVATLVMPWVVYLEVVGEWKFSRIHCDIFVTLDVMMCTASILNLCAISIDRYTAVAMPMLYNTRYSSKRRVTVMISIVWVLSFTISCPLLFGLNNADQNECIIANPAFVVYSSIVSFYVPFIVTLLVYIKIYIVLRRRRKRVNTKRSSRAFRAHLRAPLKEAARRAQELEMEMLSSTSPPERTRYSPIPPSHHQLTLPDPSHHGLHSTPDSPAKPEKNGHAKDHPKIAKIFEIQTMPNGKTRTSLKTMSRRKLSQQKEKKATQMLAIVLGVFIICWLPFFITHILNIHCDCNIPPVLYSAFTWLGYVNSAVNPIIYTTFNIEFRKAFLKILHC
As to the kind of experiment: Dopamine D2 Receptor Binding Assay (3H-spiperone displacement). As to conditions: 3H-spiperone 0.25 nM; GH4C1 (rat pituitary) cells stably transfected with human D2 short; 90 minutes, room temperature, pH 7.4. How it is done: GH4 C1 (rat pituitary) cells stably transfected with the human D2 receptor (short isoform) were grown in CO2 independent media in roller bottles (1500 cm^2) for 10 days. 100 μM ZnSO4 was added to the cells (the D2 promoter being zinc inducible). After 16 hours, fresh media was added to allow the cells to recover for 24 hours. The cells were harvested using versene and then centrifuged in a Sorval centrifuge for 10 minutes, at 5000 rpm (GS3 rotor). Pellets were quickly frozen in liquid nitrogen and stored at -80° C. until used in the binding assays. When used in the assay, cells were thawed on ice for 20 minutes.
This assay employed the same procedures as the non-specific binding assay for D4 with the exception that 2 μM (final conc.) of (-) sulpiride (Research Chemicals Inc.) was used in place of dopamine.
as §1

In test [3] the target is 5-HT2 receptor (Rattus norvegicus, UniProt P14842). As to the kind of experiment: 5-HT2 Receptor Binding Assay (3H-ketanserin displacement).
5-HT2 receptor, sequence (P14842 whole entry): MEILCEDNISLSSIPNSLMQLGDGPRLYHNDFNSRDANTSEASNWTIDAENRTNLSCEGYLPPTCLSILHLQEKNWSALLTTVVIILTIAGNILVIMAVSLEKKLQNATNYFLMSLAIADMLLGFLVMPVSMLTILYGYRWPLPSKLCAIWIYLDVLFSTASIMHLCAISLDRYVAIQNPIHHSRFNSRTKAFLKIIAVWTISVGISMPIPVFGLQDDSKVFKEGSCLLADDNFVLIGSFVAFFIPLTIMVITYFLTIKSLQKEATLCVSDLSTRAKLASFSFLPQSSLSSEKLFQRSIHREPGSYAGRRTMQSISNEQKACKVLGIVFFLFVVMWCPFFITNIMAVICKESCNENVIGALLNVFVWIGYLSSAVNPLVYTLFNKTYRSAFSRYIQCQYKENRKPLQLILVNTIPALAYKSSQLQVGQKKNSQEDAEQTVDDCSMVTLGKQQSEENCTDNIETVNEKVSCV

With `CC1CN(C2=Nc3ccccc3Oc3ccccc32)CC(C)N1` (stereo not drawn) [11-(3,5-dimethyl-1-piperazinyl)-dibenz[b,f][1,4]oxazepine], the inhibition constant Ki is 1100 nM in test [1], 6330 nM in test [2] and 0.368 µM in test [3].

For `CC1CN(C2=Nc3ccccc3Oc3ccccc32)C(C)CN1` (stereo not drawn) [11-(2,5-dimethyl-1-piperazinyl)-dibenz[b,f][1,4]oxazepine], the results for the Ki in test [1], in test [2] and in test [3] were 4540 nM, 4890 nM and 0.092 µM, respectively.

Turning to `CC1CN(C2=Nc3ccccc3Nc3cc(Cl)ccc32)CC(C)N1` (stereo not drawn) [3-chloro-11-(3,5-dimethyl-1-piperazinyl)-5H-dibenz[b,e][1,4]diazepine], the Ki in test [1] is 2750 nM; in test [2] it was 14100 nM; in test [3] it was 0.024 µM.

`CC1CN(C2=Nc3cc(Cl)ccc3Oc3ccccc32)CC(C)N1` (stereo not drawn) [8-chloro-11-(3,5-dimethyl-1-piperazinyl)-dibenz[b,f][1,4]oxazepine]: the Ki in test [1] is 215 nM; in test [2], 2170 nM; in test [3], 0.0134 µM.
